Source: patent publication US20220211728A1, “ALKYL-TPP COMPOUNDS FOR MITOCHONDRIA TARGETING AND ANTI-CANCER TREATMENTS” (LUNELLA BIOTECH, INC., priority 2019, published 2022)
“Also recorded” adds a separate entry of the source. Where two headings read alike, the source gives them in different places.

How the values were obtained:
[1] = tested on: MCF-7 breast cancer cells; test: mammosphere formation assay (CSC propagation) in MCF-7 cells; type: cell-based, human; conditions: for IC50: Homo sapiens, MCF7
Description: (§1) The mammosphere assay was performed as follows. A single cell suspension of MCF-7 or MDA-MB-231 cells was prepared using enzymatic (1× Trypsin-EDTA, Sigma Aldrich), and manual disaggregation (25 gauge needle). Cells were then plated at a density of 500 cells/cm^2 in mammosphere medium (DMEM-F12/B27/20-ng/ml EGF/PenStrep) in nonadherent conditions, in culture dishes coated with (2-hydroxyethylmethacrylate) (poly-HEMA, Sigma Aldrich), in the presence of treatments, were required. Cells were grown for 5 days and maintained in a humidified incubator at 37° C. at an atmospheric pressure in 5% (v/v) carbon dioxide/air. After 5 days for culture, spheres >50 μm were counted using an eye piece graticule, and the percentage of cells plated which formed spheres was calculated and is referred to as percentage mammosphere formation. Mammosphere assays were performed in triplicate and repeated three times independently.

[2] = tested on: MCF-7 breast cancer cells; conditions: b-TPP, identified in International Application PCT/US2018/062174; read-out: IC-50 inhibiting CSC propagation; cited from earlier work
MCF-7 cells [3] = test: Seahorse XFe96 metabolic flux analysis, oxygen consumption rate (OCR); type: cell-based, human
Description: (§2) The extracellular acidification rate (ECAR) and real-time oxygen consumption rate (OCR) assays for metabolic flux analysis were performed using the Seahorse Extracellular Flux (XFe-96) analyzer (Seahorse Bioscience). Briefly, 15,000 MCF-7 cells per well were seeded into XFe-96 well cell culture plates, and incubated overnight to allow attachment. Cells were then treated with increasing concentrations of d-TPP (50 nM+500 nM) for 24 hours. Vehicle alone (DMSO) control cells were processed in parallel. Then, cells were washed in pre-warmed XF assay media (or for OCR measurement, XF assay media supplemented with 10 mM glucose, 1 mM Pyruvate, 2 mM L-glutamine and adjusted at 7.4 pH). Cells were then maintained in 175 μL/well of XF assay media at 37 C, in a non-CO2 incubator for 1 hour. During the incubation time, 5 μL of 80 mM glucose, 9 μM oligomycin, and 1 M 2-deoxyglucose (for ECAR measurement) or 10 μM oligomycin, 9 μM FCCP, 10 μM Rotenone, 10 μM antimycin A (for OCR measurement), were loaded in XF assay media into the injection ports in the XFe-96 sensor cartridge. Data set was analyzed by XFe-96 software after the measurements were normalized by protein content (SRB). All experiments were performed three times independently.

[4] = tested on: MCF-7 breast cancer cells; test: cell viability by sulphorhodamine (SRB) assay in MCF-7 cells; type: cell-based; conditions: Homo sapiens, MCF7, 250 nM, 500 nM and 1 μM, read-out: reduction in cell viability
Description: (§3) Cell viability was assessed in MCF-7 and hTERT-BJ1 cells by sulphorhodamine (SRB) assay, based on the measurement of cellular protein content. After treatment with d-TPP (50 nM+1 μM) for 24, 48 or 72 hours, cells were fixed with 10% trichloroacetic acid (TCA) for 1 hour in cold room, and dried overnight at room temperature. Then, cells were incubated with SRB for 15 min, washed twice with 1% acetic acid, and air dried for at least 1 hour. Finally, the protein-bound dye was dissolved in 10 mM Tris pH 8.8 solution and read using a plate reader at 540 nm.

[5] = tested on: normal human fibroblasts (hTERT-BJ1); test: cell viability by sulphorhodamine (SRB) assay in normal fibroblasts; type: cell-based
Description: as §3

adherent MCF-7 cells = test: xCELLigence real-time cell analysis of cell proliferation; type: cell-based, human
Description: The xCELLigence system was used to analyze the kinetics of d-TPP action on cell proliferation of adherent MCF-7 cells. The xCELLigence system evaluates the real-time, label-free monitoring of cell health and behavior, by measuring the electrical impedance, whose magnitude is dependent on the number of cells. Real-time cell analysis was performed for 48-hour and 72-hour treatment with d-TPP, at concentrations of 50 nM, 100 nM, and 250 nM. The control was vehicle-only. The results for the 48-hour d-TPP treatment are shown in FIGS. 8A and 8B, and FIGS. 8C and 8D show results for the 72-hour d-TPP treatment.
The xCELLigence Real-time cell analysis (RTCA) System was sourced from ACEA Biosciences Inc. The xCELLigence RTCA system provides a useful approach for the real-time monitoring of the biological status of adherent cells, by measuring the electrical impedance, expressed as a cell index (CI) value. 5000 MCF-7 cells were seeded in a 16-well plate (E-plate). 24 hours after seeding, cells were treated with vehicle or increasing concentrations of d-TPP (from 50 nM to 250 nM) for additional 48 hours or 72 hours. RTCA was performed by measuring the cell-induced electrical impedance values, which were automatically recorded every 15 min for 96 h. This approach allows the quantification of the onset and kinetics of the cellular response. Experiments were repeated three times independently, using quadruplicate samples for each condition.

MCF-7 cells [6] = test: Seahorse XFe96 metabolic flux analysis, extracellular acidification rate (ECAR); type: cell-based, human; conditions: MCF-7, d-TPP 50 nM to 500 nM
Description: as §2

[7] = tested on: human breast tumors initiated from the MDA-MB-231 cell line; test: CAM assay, tumor growth and metastasis; type: in vivo, chicken embryos
Description: (§4) Further evaluation of both efficacy and toxicity was performed on human breast tumors initiated from the MDA-MB-231 cell line in chicken embryos using the CAM Model available from Inovotion (La Tronche, France). […] With respect to the CAM assay, fertilized eggs were incubated at 37.5° C. with 50% relative humidity for 9 days. The graft was dropped into each egg through a small hole drilled through the eggshell into the air sac, and a 1 cm^2 window cut in the eggshell above the CAM. This grafting process was used for each egg in a test group. Because the grafting process is an invasive surgical act, some death is expected to occur during hours after the tumor graft. For the data reported herein, at least 10 eggs per test group were successfully grafted.
The MDA-MB-231 tumor cell line was cultivated in DMEM medium supplemented with 10% FBS and 1% penicillin/streptomycin. After the 9-day incubation period, cells were detached with trypsin, washed with complete medium, and suspended in a graft medium. An inoculum of 1.10^6 cells was added onto the CAM of each egg, and then eggs were randomized into test groups. Tumors were detectable within one day of the graft. The negative control group was a 0.125% DMSO in PBS, and d-TPP groups for concentrations of 6.25 μM, […], were evaluated. Each egg in a group was treated 8 times per day. After 8 days of treatments, tumor growth was quantitatively evaluated. The upper portion of the CAM (with the tumor) was removed, washed in a PBS buffer, and then directly transferred in PFA for a 48-hour fixation. Tumors were then carefully cut away from normal CAM tissue and weighed. For all quantitative data relating to the chicken egg evaluation, a one-way ANOVA (with post-tests between each couple of groups) was performed with the specialized computer software Prism® (GraphPad Software). For all analyses, statistical difference between groups is made visible on graphs by the presence of stars with the following meaning: no asterisk means p>0.05; * means […]; ** means 0.01≥p>0.001; and *** means 0.001≥p. […] Consistent with the evaluations described above, the d-TPP tumor growth inhibition effect was dose-dependent.
Metastatic invasion was also quantitatively evaluated. A 1 cm^2 portion of the lower CAM was collected to evaluate the number of metastatic cells in 8 samples per group (n=8). Genomic DNA was extracted from the CAM using a commercial kit, and analyzed by qPCR with specific primers for Human Alu sequences. Calculation of Cq for each sample, mean Cq and relative amounts of metastases for each group were directly managed by the Bio-Rad® CFX Maestro software. […]

chicken embryos = test: CAM assay, embryonic tolerability; type: in vivo
Description: as §4
Embryonic tolerability of the d-TPP treatments were also quantitatively evaluated. Embryonic viability was checked daily following grating and during treatment. The number of dead embryos was also counted on the final day, to evaluate treatment-induced embryo toxicity. […] It should be appreciated by those having an ordinary level of skill in the art that toxicity should be analyzed for establishing a dosing regimen.

[8] = tested on: MDA-MB-231 triple negative breast cancer cells; test: mammosphere formation assay (CSC propagation) in MDA-MB-231 cells; type: cell-based, human
Description: as §1

[9] = Berberine chloride 10 μM with d-TPP 100 nM

With `O=CC[C@@H](O)[C@H](O)[C@H](O)CO` [2-DG, 2-deoxy-D-glucose] the “increase in the inhibitory effect of d-TPP alone” value ([1]; 2-DG 10 mM with d-TPP 100 nM) was 2 fold and the “residual mammosphere formation capability” value ([1]; 2-DG 20 mM with d-TPP 100 nM) was under 10%.
In the case of `COc1ccc2cc3[n+](cc2c1OC)CCc1cc2c(cc1-3)OCO2` [Berberine chloride], the “reduction (CSC formation)” value ([1]; Berberine chloride 1 μM with d-TPP 100 nM) is reported as 60%, the “increase in efficacy of d-TPP” value [1, 9] is reported as about 5 fold and the “inhibition of CSC formation” value [1, 9] is reported as “over 80%”.
With `O=C(Nc1ccc([N+](=O)[O-])cc1Cl)c1cc(Cl)ccc1O` [Niclosamide] the “increase in efficacy of d-TPP on CSC activity” value ([1]; Niclosamide 250 nM with d-TPP 100 nM) was about 2 fold and the “increase in efficacy of d-TPP on CSC activity” value ([1]; Niclosamide 500 nM with d-TPP 100 nM) was about 3 fold.
For `O=C1O[C@H]([C@@H](O)CO)C(O)=C1O` [Vitamin C, Ascorbic Acid], the IC50 ([1]; Vitamin C separately (without d-TPP), read-out: IC-50 MCF-7 CSC propagation) was 1000 µM, the “inhibition of propagation of CSCs” value ([1]; Vitamin C 250 μM in combination with d-TPP at 100 nM) was “over 50%” and the “inhibition of propagation of CSCs” value ([1]; Vitamin C 500 μM in combination with d-TPP at 100 nM) was “over 70%”. For the same compound, the “increase in CSC sensitivity to Vitamin C caused by d-TPP” value ([1]; d-TPP 100 nM) was about 4 fold.
In the case of `C(=CC[P+](c1ccccc1)(c1ccccc1)c1ccccc1)C[P+](c1ccccc1)(c1ccccc1)c1ccccc1` [b-TPP, 2-butene-1,4-bis-TPP], the IC50 [2] is given as about 0.5 µM.
With `CCCCCCCCCCC[P+](c1ccccc1)(c1ccccc1)c1ccccc1` [d-TPP, dodecyl-TPP] the IC50 (MCF-7 cells [3]; Homo sapiens, MCF7, MCF-7, 24 hours treatment, read-out: IC-50 basal mitochondrial respiration) was about 0.25 µM, the “oxygen consumption rate (OCR)” value (MCF-7 cells [3]; MCF-7, d-TPP 50 nM) was “dramatic reduction” and the ATP levels (MCF-7 cells [3]; MCF-7, d-TPP 50 nM to 500 nM) was “dose-dependently depleted”. For the same compound, the cytotoxicity at 0.25 µM ([4]; MCF-7, 24 hours) was about 30%, the cytotoxicity at 0.25 µM ([4]; MCF-7, 72 hours) was about 80% and the “toxicity to hTERT-BJ1 cells” value ([5]; 50 nM and 100 nM) was “no toxicity”. The “cell viability of hTERT-BJ1 cells” value ([5]; 250 nM, 500 nM and 1 μM) was “decreased”, the “effect on cell number (cell index)” value (adherent MCF-7 cells; MCF-7, 50 nM d-TPP, 72 h treatment) was “trend of reduced cell number” and the “effect on cell proliferation (cell index)” value (adherent MCF-7 cells; MCF-7, 100 nM d-TPP) was “main cytostatic effect”. For the same compound, the “cytotoxicity (cell index)” value (adherent MCF-7 cells; MCF-7, 250 nM d-TPP) was “Cytotoxicity was present”, the “glycolysis (ECAR)” value (MCF-7 cells [6]) was “substantially and dose-dependently increased” and the IC50 ([1]; MCF-7, read-out: concentration necessary to half CSC activity) was about 0.25 µM. For the same compound, the “potency in inhibiting mammosphere formation / CSC propagation compared with b-TPP (other TPP-derivatives)” value ([1]; MCF-7) was “twice as potent; also recorded: more than twice as potent”, the “reduction in mammosphere formation” value ([1]; MCF-7, d-TPP 50 nM and 100 nM) was 20% and the “reduction in CSC propagation (mammosphere formation)” value ([1]; MCF-7, d-TPP 500 nM and 1 μM) was 80%. For the same compound, the inhibition of metastasis ([7]; 25 μM concentration) was about 75%, the “inhibition of tumor growth” value ([7]; 25 sM concentration) was about 40% and the “tumor growth (tumor weight) compared to the negative control” value ([7]; medium (25.0 μM) and high (62.5 μM) doses) was “significantly inhibited”. The “metastatic invasion (qPCR for Alu sequences in the lower CAM) compared to the negative control” value ([7]; medium dose) was “metastasis regression”, the embryo toxicity (chicken embryos; higher dose) was “resulted in mortality” and the embryo toxicity (chicken embryos; medium and low doses) was “did not exhibit toxicity”. For the same compound, the inhibition at 1 µM ([8]; Homo sapiens, MDA-MB-231, d-TPP 1 μM) was about 80% and the “effect on CSC propagation (mammosphere formation)” value ([8]; MDA-MB-231, d-TPP 50 nM (lowest concentration tested)) was “showed an inhibitory effect”.
